Source: patent publication US8207198B2, “Substituted triazole derivatives as oxytocin antagonists” (Pfizer Inc., priority 2005, dated 2012)

Molecular target: T1, oxytocin receptor (CHO-OTR/NFAT-β-Lactamase cells) (Homo sapiens, UniProt P30559)
T1 construct: expressed in transfected cells; host or cells: CHO-OTR cell line, further transfected with the NFAT-β-lactamase reporter construct
T1 sequence (P30559 1-389): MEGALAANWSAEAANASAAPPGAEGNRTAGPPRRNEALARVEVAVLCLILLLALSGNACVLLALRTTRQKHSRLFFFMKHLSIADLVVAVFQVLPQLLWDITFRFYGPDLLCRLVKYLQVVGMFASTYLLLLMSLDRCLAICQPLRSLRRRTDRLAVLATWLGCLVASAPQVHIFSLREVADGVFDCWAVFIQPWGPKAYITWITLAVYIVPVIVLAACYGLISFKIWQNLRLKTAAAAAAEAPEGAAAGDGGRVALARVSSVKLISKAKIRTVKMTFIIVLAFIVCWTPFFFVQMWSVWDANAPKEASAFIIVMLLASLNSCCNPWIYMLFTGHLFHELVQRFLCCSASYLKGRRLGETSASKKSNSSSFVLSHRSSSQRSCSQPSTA
Assay: Oxytocin Receptor Beta-Lactamase Assay
Type: cell-based
Details: oxytocin stimulation, read-out: oxytocin antagonist activity, expressed as a Ki value
Description: A suitable assay for determining the oxytocin antagonist activity of a compound is detailed herein below.
Oxytocin Receptor Beta-Lactamase Assay
Cell Culture Cells used are CHO-OTR/NFAT-β-Lactamase. The NFAT-β-lactamase expression construct was transfected into the CHO-OTR cell line and clonal populations were isolated via fluorescence activated cell sorting (FACS). An appropriate clone was selected to develop the assay. Growth Medium 90% F12 Nutrient Mix, 15 mM HEPES 10% FBS 400 μg/ml Geneticin 200 μg/ml Zeocin 2 mM L-Glutamine Assay Media 99.5% F12 Nutrient Mix, 15 mM HEPES 0.5% FBS
Recovery of cells—A vial of frozen cells is thawed rapidly in 37° C. water bath and the cell suspension transferred into a T225 flask with 50 ml of fresh growth medium and then incubated at 37° C., 5% CO2 in an incubator until the cells adhered to the flask Replace media with 50 ml of fresh growth media the following day.
Culturing cells—CHO-OTR-NFAT-βLactamase cells were grown in growth medium. Cells were harvested when they reached 80-90% confluence removing the medium and washing with pre-warmed PBS. PBS was then removed and Trypsin/EDTA added (3 mls for T225 cm^2 flask) before incubating for 5 min in 37° C./5% CO2 incubator. When cells were detached, pre-warmed growth media was added (7 mls for T225 cm^2 flask) and the cells re-suspended and mixed gently by pipetting to achieve single cell suspension. The cells were split into T225 flask at 1:10 (for 3 days growth) and 1:30 (for 5 days growth) ratio in 35 ml growth medium.
Cells grown at 80-90% confluence were harvested and counted. Suspensions of cells at 2×10^5 cells/ml in growth medium were prepared and 30 μl of cells suspension added in 384-well, black clear-bottom plates. A blank plate containing diluents from each reagent was used for background subtraction.
Plates were incubated at 37° C., 5% CO2 overnight. […]
Preparation of 1 ml of 6× Loading Buffer with Enhanced Loading Protocol (this requires scale-up according to number of plates to be screened). • 12 μl of solution A (1 mM CCF4-AM in Dry DMSO) was added to […] of solution B (100 mg/ml Pluronic-F127 in DMSO+0.1% Acetic Acid) and vortexed. • The resulting solution was added to 925 μl of solution C (24% w/w PEG400, 18% TR40 v/v in water). • 75 μl of solution D was added (200 mM probenecid in 200 mM NaOH). • 10 μl of 6× Loading Buffer was added to all wells and incubated for 1.5 hrs-2 hrs at room temperature in the dark. • The plates were read using an LJL Analyst, Excitation 405 nm, Emission 450 nm and 530 nm, gain optimal, lagtime 0.40 μs integration, 4 flashes, bottom reading.

Row | SMILES | Ki [nM]
1 | COCc1nnc(N2CC(Oc3ccc(F)cc3Cl)C2)n1-c1ccc(OC)nc1 [Example 25] | 9
2 | COCc1nnc(N2CC(Oc3cccc(C)c3C)C2)n1-c1ccc(OC)nc1 [Example 28] | 13.8
3 | COc1ccc(-n2c(C)nnc2N2CCC(Oc3ccc(F)cc3C)CC2)cn1 [Example 43] | 4.2
4 | COCc1nnc(N2CCC(Oc3cccc(F)c3C)CC2)n1-c1ccc(OC)nc1 [Example 48] | 1.8
